# Several values for one entry are separate records, joined by “and”; a condition that tells them apart may be missing. Equal values may be shown once. Entries after “also recorded” stand apart in the source; their conditions may differ. Where a name gives a salt, the structure may show the parent alone. Read-outs that look alike come from different tables or passages of the source.
# What was measured:
# [1] = cited from earlier work; for Maximal plasma concentration: ref 39 (Nagelschmitz et al.), listed as aspirin
# LMH cells [2] = experiment: Fluorescence-based in vitro drug screening assay; assay type: cell-based, chicken; conditions: for Fluorescence reading / Fluorescence readings compared with the […] AIA control: 18–24 h; for Fluorescence reading: ex 410/em 625 nm; for Fluorescence readings compared with the […] AIA control: in the presence of DFO, 0–1 mM; for Porphyrogenicity / PP accumulation (authors' conclusion in words): with and without DFO
# HepG2 spheroids = experiment: Fluorescence-based in vitro drug screening assay in HepG2 spheroids; assay type: cell-based, human; conditions: for Fluorescence reading compared with background: HepG2 organoids/spheroids, 0.5 mM compound with and without DFO
# LMH cells [3] = experiment: ATPLite cytotoxicity assay in LMH cells; conditions: 1 mM compound in the presence of DFO
# HepG2 cells = experiment: Fluorescence-based in vitro drug screening assay; assay type: cell-based, human; conditions: 1 mM compound + DFO, 18–24 h
# human liver organoids = experiment: Fluorescence-based in vitro drug screening assay in human liver organoids; assay type: cell-based; conditions: approximately 100 human liver organoids, 0.5 mM compound + DFO, 18–24 h
# [4] = ATPLite cytotoxicity assay in LMH cells; conditions: chicken, CC50, LMH cells, 18–24 h, presence of 250 μM DFO
# [5] = system: hydroxymethylbilane synthase; conditions: human erythrocytes; cited from earlier work
# [6] = system: hydroxymethylbilane synthase; conditions: rat livers; cited from earlier work
# [7] = humans, typically used oral doses
# [8] = LMH cells, […] compound + 250 μM DFO
# [9] = 1 mM compound in the presence of DFO
# [10] = LMH cells, 1 mM compound + 250 μM DFO
smiles,measurement,setting,value
"C#CC1(O)CC[C@H]2[C@@H]3CCC4=CC(=O)CC[C@@H]4[C@H]3CC[C@@]21CC (mixture of isomers) [norgestrel, D (‐) norgestrel]",Maximal serum concentration,[1]; [7],approximately 14.1 ng/ml
same,Fluorescence reading,LMH cells [2]; [8],6890 ± 106 RFU
same,Fluorescence readings compared with the […] AIA control,LMH cells [2]; LMH cells,above the 0.314‐mM AIA control
same,Porphyrogenicity / PP accumulation (authors' conclusion in words),LMH cells [2]; LMH cells,porphyrogenic; also recorded: notable accumulation of PP
"NCC(=O)CCC(=O)O [ALA, 5‐aminolevulinic acid]",Fluorescence reading,"HepG2 spheroids; approximately 200 HepG2 spheroids, 0.5 mM compound + DFO, 18–24 h",above 6000 RFU
same,Cytotoxic effect,LMH cells [3],mild cytotoxic effects
same,Fluorescence reading,HepG2 cells,above 5000 RFU
same,Fluorescence reading,human liver organoids,above 1600 RFU
same,Fold higher fluorescence readings in LMH cells than in HepG2 cells,LMH cells [2]; [9],approximately 2.1 fold
same,Fold higher fluorescence readings in LMH cells than in HepG2 organoids,LMH cells [2]; [9],~1.9 fold
same,Fold higher fluorescence readings in LMH cells than in human liver organoids,LMH cells [2]; [9],~7 fold
same,Fluorescence reading,LMH cells [2]; [10],above 10 000 RFU
CC(=O)Nc1ccc(O)cc1 [acetaminophen],Maximum plasma concentration,"[1]; oral 1000-mg tablet, ref 40 (Hong et al.)",approximately 8.79 mg/L and ~0.058 mM
same,Porphyrogenicity / PP accumulation (authors' conclusion in words),LMH cells [2]; LMH cells,not porphyrogenic
CC(=O)Oc1ccccc1C(=O)O [acetylsalicylic acid],Maximal plasma concentration,[1]; intravenous 500-mg dose,54.25 mg/L and 0.30 mM
same,Maximal plasma concentration,[1]; oral 500-mg dose,4.84 mg/L and 0.027 mM
same,Porphyrogenicity / PP accumulation (authors' conclusion in words),LMH cells [2]; LMH cells,not porphyrogenic
C[C@](N)(Cc1ccc(O)c(O)c1)C(=O)O [alpha‐methyldopa],CC50,[4],164 µM
same,Porphyrogenicity / PP accumulation (authors' conclusion in words),LMH cells [2]; LMH cells,did not lead to an appreciable accumulation of PP
"CCN(CCO)CCCC(C)Nc1ccnc2cc(Cl)ccc12 (stereo not drawn) [hydroxychloroquine, hydroxychloroquine sulfate]",CC50,[4],381 µM
same,Porphyrogenicity / PP accumulation (authors' conclusion in words),LMH cells [2]; LMH cells,does not upregulate hepatic ALAS‐1
CCC1(c2ccccc2)C(=O)NC(=O)NC1=O [phenobarbital],Fluorescence reading compared with background,HepG2 spheroids,failed to produce fluorescence readings above background
same,Maximal serum concentration,"[1]; 2.9-mg/kg oral dose, ref 43 (Nelson et al.)",approximately 5.5 mg/L; also recorded: around 0.024 mM
same,Fluorescence reading,LMH cells [2]; [10],7513 ± 48 RFU
same,Fluorescence readings compared with the AIA positive control,"LMH cells [2]; LMH cells, concentrations around 0.024 mM",close to the AIA positive control
same,Fluorescence readings compared with the […] AIA control,LMH cells [2]; LMH cells,above the 0.314‐mM AIA control
O=C1NC(=O)C(c2ccccc2)(c2ccccc2)N1 [phenytoin sodium],Maximal serum concentration,"[1]; humans, oral 300-mg dose, ref 44 (Suthisisang et al.)",approximately 1.98 µg/ml and ~7.22 µM
O=C1NC(=O)C(c2ccccc2)(c2ccccc2)N1 [phenytoin],Fluorescence reading compared with background,HepG2 spheroids,failed to produce fluorescence readings above background
same,Fluorescence reading,LMH cells [2]; [8],5913 ± 190 RFU
same,Fluorescence readings compared with the […] AIA control,LMH cells [2]; LMH cells,above the 0.314‐mM AIA control
same,Porphyrogenicity / PP accumulation (authors' conclusion in words),LMH cells [2]; LMH cells,porphyrogenic
CCCC(CCC)C(=O)O [sodium valproate],Porphyrogenicity / PP accumulation (authors' conclusion in words),LMH cells [2]; LMH cells,porphyrogenic
Cc1noc(NS(=O)(=O)c2ccc(N)cc2)c1C [sulfisoxazole],Effect on the activity of hydroxymethylbilane synthase,[5],did not affect the activity
same,Porphyrogenicity / PP accumulation (authors' conclusion in words),LMH cells [2]; LMH cells,neither of these drugs led to excess PP accumulation
same,Effect on the activity of hydroxymethylbilane synthase,[6],did not affect the activity
CCCC(CCC)C(=O)O [valproic acid],Maximal serum concentration,"[1]; humans, typically used oral doses (norgestrel, valproic acid)",~8.81 mM
same,Maximal serum concentration,[1]; [7],approximately 1271 mg/L
CCCCC(=O)N(Cc1ccc(-c2ccccc2-c2nnn[nH]2)cc1)[C@H](C(=O)O)C(C)C [valsartan],Porphyrogenicity / PP accumulation (authors' conclusion in words),LMH cells [2]; LMH cells,did not show evidence of porphyrogenicity
C[C@]12CC[C@@H]3c4ccc(O)cc4CC[C@H]3[C@@H]1CC[C@@H]2O [β‐estradiol],Porphyrogenicity / PP accumulation (authors' conclusion in words),LMH cells [2]; LMH cells,notable accumulation of PP

# Reference: publication PMC9022196 (Pharmacology Research & Perspectives, 2022)
